Earlier results, collected in patent US9668974B2, “Depot formulations of a local anesthetic and methods for preparation thereof” (PAINREFORM LTD., priority 2012, dated 2017).

Conditions: in vivo

CCCN1CCCC[C@H]1C(=O)Nc1c(C)cccc1C [ropivacaine]
Toxic threshold (plasma ropivacaine): 0.6 µg/mL
